The subject of series [1] is K562 CRISPRi cells. In words: Perturb-seq pooled growth measurement (sgRNA counts, growth phenotype γ, relative activity). Particulars: for gamma_day5 / gamma_day10: pooled growth phenotype γ of the Perturb-seq sgRNA; for gamma_day5: day 5, K562 CRISPRi cells; for gamma_day10: day 10, K562 CRISPRi cells; for relative_activity_day5: γ relative to perfectly matched sgRNA (_00) of the same gene, day 5. It counts as cell-based, human. The gist of the method:
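sgRNA abundance was sequenced from genomic DNA of the same transduced population sampled on days two, seven and twelve. Phenotype γ compares normalized day seven and twelve counts with day two. Day-seven values (five days of growth) define relative sgRNA activity.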

Series [2] concerns K562 CRISPRi cells. Described as above. It counts as cell-based, human. Particulars: γ relative to perfectly matched sgRNA (_00) of the same gene, day 10.

“DUT_ + _48624411.23-P1P2_10 (guide GCGAGCGAGGAGACCAACGG; listed as DNA, chemistry not fully specified)”: in the series on K562 CRISPRi cells [1], the gamma_day5 was −0.3864, the gamma_day10 was −0.3196 and the relative_activity_day5 was 0.4873. The same substance yielded a relative_activity_day10 with K562 CRISPRi cells [2] of 0.4949.

Turning to “EIF2S1_ −_67827080.23-P1P2_00 (guide GAGCGAAGCGCACGCTGAGG; listed as DNA, chemistry not fully specified)”, in the series with K562 CRISPRi cells [1], the gamma_day5 was −0.9047, the gamma_day10 is recorded as −0.5155 and the relative_activity_day5 was found to be 1. This substance came in with a relative_activity_day10 in the series with K562 CRISPRi cells [2] of 1.

“EIF2S1_ −_67827080.23-P1P2_01 (guide GAGCGAAACGCACGCTGAGG; listed as DNA, chemistry not fully specified)”: in the series with K562 CRISPRi cells [1], the gamma_day5 is given as −0.4467, the gamma_day10 is listed as −0.3032 and the relative_activity_day5 was found to be 0.4937. Besides, the relative_activity_day10 with K562 CRISPRi cells [2] was 0.5881.

In the series with K562 CRISPRi cells [1], “EIF2S1_ −_67827080.23-P1P2_02 (guide GAGCGCAGCGCACGCTGAGG; listed as DNA, chemistry not fully specified)” came in with a gamma_day5 of −0.7288, a gamma_day10 of −0.4556 and a relative_activity_day5 of 0.8055. This substance registered a relative_activity_day10 with K562 CRISPRi cells [2] of 0.8838.

In the series with K562 CRISPRi cells [1], “EIF2S1_ −_67827080.23-P1P2_06 (guide GAGCGAAGCGCGCGCTGAGG; listed as DNA, chemistry not fully specified)” displayed a gamma_day5 of −0.6688, a gamma_day10 of −0.3635 and a relative_activity_day5 of 0.7393. This substance registered a relative_activity_day10 in the series with K562 CRISPRi cells [2] of 0.7051.

In the series on K562 CRISPRi cells [1], “EIF2S1_ −_67827080.23-P1P2_07 (guide GAGCGAAGCGCTCGCTGAGG; listed as DNA, chemistry not fully specified)” came in with a gamma_day5 of −0.08307, a gamma_day10 of −0.04004 and a relative_activity_day5 of 0.09182. This substance also displayed a relative_activity_day10 in the series with K562 CRISPRi cells [2] of 0.07767.

In the case of “GATA1 −_48645022.23-P1P2_12 (guide GTGAGCTTGCCACATCCGCA; listed as DNA, chemistry not fully specified)”, in the series on K562 CRISPRi cells [1], the gamma_day5 is listed as −0.1084, the gamma_day10 is recorded as −0.06327 and the relative_activity_day5 is given as 0.1126. This substance also came in with a relative_activity_day10 in the series on K562 CRISPRi cells [2] of 0.1028.

For “GATA1_ −_48645022.23-P1P2_00 (guide GTGAGCTTGCCACATCCCCA; listed as DNA, chemistry not fully specified)”, in the series on K562 CRISPRi cells [1], the gamma_day5 is recorded as −0.9627, the gamma_day10 was −0.6153 and the relative_activity_day5 is given as 1. Besides, the relative_activity_day10 in the series with K562 CRISPRi cells [2] was found to be 1.

“GATA1_ −_48645022.23-P1P2_03 (guide GTGCGCTTGCCACATCCCCA; listed as DNA, chemistry not fully specified)”: in the series with K562 CRISPRi cells [1], the gamma_day5 was −0.9855, the gamma_day10 is −0.6259 and the relative_activity_day5 amounted to 1.024. This substance also showed a relative_activity_day10 with K562 CRISPRi cells [2] of 1.017.

Take “GATA1_ −_48645022.23-P1P2_04 (guide GTGAGCTTACCACATCCCCA; listed as DNA, chemistry not fully specified)”: in the series on K562 CRISPRi cells [1], the gamma_day5 was −0.9313, the gamma_day10 was −0.6032 and the relative_activity_day5 is recorded as 0.9673. The relative_activity_day10 with K562 CRISPRi cells [2] came out at 0.9804.

In the series on K562 CRISPRi cells [1], “GATA1_ −_48645022.23-P1P2_06 (guide GTGAGCTTGCGACATCCCCA; listed as DNA, chemistry not fully specified)” had a gamma_day5 of −0.5073, a gamma_day10 of −0.3486 and a relative_activity_day5 of 0.5269. The relative_activity_day10 in the series on K562 CRISPRi cells [2] is recorded as 0.5666.

In the series on K562 CRISPRi cells [1], “GATA1_ −_48645022.23-P1P2_08 (guide GTGAGCTTTCCACATCCCCA; listed as DNA, chemistry not fully specified)” came in with a gamma_day5 of −0.7632, a gamma_day10 of −0.4893 and a relative_activity_day5 of 0.7928. Further, the relative_activity_day10 with K562 CRISPRi cells [2] was determined as 0.7953.

In the series with K562 CRISPRi cells [1], “GINS1_ −_25388381.23-P1P2_00 (guide GGACTAGAACGAAAGGAGTG; listed as DNA, chemistry not fully specified)” returned a gamma_day5 of −0.9993, a gamma_day10 of −0.7125 and a relative_activity_day5 of 1. For the same substance, the relative_activity_day10 in the series on K562 CRISPRi cells [2] was 1.

Consider “GINS1_ −_25388381.23-P1P2_03 (guide GGACTATAACGAAAGGAGTG; listed as DNA, chemistry not fully specified)”, for which, in the series with K562 CRISPRi cells [1], the gamma_day5 was −0.7467, the gamma_day10 is −0.4797 and the relative_activity_day5 is 0.7472. For the same substance, the relative_activity_day10 in the series on K562 CRISPRi cells [2] amounted to 0.6733.

In the series with K562 CRISPRi cells [1], “GINS1_ −_25388381.23-P1P2_06 (guide GGACTAGAACGGAAGGAGTG; listed as DNA, chemistry not fully specified)” returned a gamma_day5 of −0.9794, a gamma_day10 of −0.6548 and a relative_activity_day5 of 0.9801. The relative_activity_day10 with K562 CRISPRi cells [2] came out at 0.9191.

Regarding “GINS1_ −_25388381.23-P1P2_08 (guide GGACTAGAGCGAAAGGAGTG; listed as DNA, chemistry not fully specified)”, in the series on K562 CRISPRi cells [1], the gamma_day5 is on record as −1.039, the gamma_day10 is −0.6723 and the relative_activity_day5 is given as 1.039. Further, the relative_activity_day10 in the series with K562 CRISPRi cells [2] was found to be 0.9436.

For “GINS1_ −_25388381.23-P1P2_14 (guide GGACTAGAACGAAAGGAGCG; listed as DNA, chemistry not fully specified)”, in the series on K562 CRISPRi cells [1], the gamma_day5 is −0.3535, the gamma_day10 is reported as −0.2609 and the relative_activity_day5 is recorded as 0.3537. Besides, in the series with K562 CRISPRi cells [2], the relative_activity_day10 was determined as 0.3662.

In the series on K562 CRISPRi cells [1], “GNB2L1_ + _180670873.23-P1P2_00 (guide GTGCAAGGCGGCGGCAGGAG; listed as DNA, chemistry not fully specified)” registered a gamma_day5 of −0.2908, a gamma_day10 of −0.3054 and a relative_activity_day5 of 1. The substance also yielded a relative_activity_day10 in the series with K562 CRISPRi cells [2] of 1.

For “GNB2L1_ + _180670873.23-P1P2_02 (guide GTGCAAGACGGCGGCAGGAG; listed as DNA, chemistry not fully specified)”, in the series on K562 CRISPRi cells [1], the gamma_day5 is −0.1438, the gamma_day10 is recorded as −0.1273 and the relative_activity_day5 came to 0.4945. This substance also came in with a relative_activity_day10 with K562 CRISPRi cells [2] of 0.4167.

In the series on K562 CRISPRi cells [1], “GNB2L1_ + _180670873.23-P1P2_07 (guide GTGCAAGGCGGGGGCAGGAG; listed as DNA, chemistry not fully specified)” returned a gamma_day5 of −0.38, a gamma_day10 of −0.2733 and a relative_activity_day5 of 1.307. In addition, in the series with K562 CRISPRi cells [2], the relative_activity_day10 is reported as 0.8948.

In the series on K562 CRISPRi cells [1], “GNB2L1_ + _180670873.23-P1P2_08 (guide GTGCAAGGTGGCGGCAGGAG; listed as DNA, chemistry not fully specified)” showed a gamma_day5 of −0.3061, a gamma_day10 of −0.3155 and a relative_activity_day5 of 1.052. The relative_activity_day10 with K562 CRISPRi cells [2] turned out to be 1.033.

“GNB2L1_ + _180670873.23-P1P2_13 (guide GTGCAAGGCGGCGGCGGGAG; listed as DNA, chemistry not fully specified)”: in the series with K562 CRISPRi cells [1], the gamma_day5 is listed as −0.2097, the gamma_day10 is on record as −0.2074 and the relative_activity_day5 was 0.7211. For the same substance, the relative_activity_day10 with K562 CRISPRi cells [2] turned out to be 0.6791.

For “HSPA5_ + _128003624.23-P1P2_00 (guide GAGCCGAGTAGGCGACGGTG; listed as DNA, chemistry not fully specified)”, in the series with K562 CRISPRi cells [1], the gamma_day5 was −0.7476, the gamma_day10 was −0.4272 and the relative_activity_day5 is reported as 1. Besides, in the series with K562 CRISPRi cells [2], the relative_activity_day10 amounted to 1.

Take “HSPA5_ + _128003624.23-P1P2_01 (guide GAACCGAGTAGGCGACGGTG; listed as DNA, chemistry not fully specified)”: in the series with K562 CRISPRi cells [1], the gamma_day5 is recorded as −0.6373, the gamma_day10 is given as −0.3748 and the relative_activity_day5 stood at 0.8525. The substance further registered a relative_activity_day10 in the series on K562 CRISPRi cells [2] of 0.8774.

In the series with K562 CRISPRi cells [1], “HSPA5_ + _128003624.23-P1P2_04 (guide GAGCCGAGAAGGCGACGGTG; listed as DNA, chemistry not fully specified)” had a gamma_day5 of −0.7544, a gamma_day10 of −0.4225 and a relative_activity_day5 of 1.009. In the series on K562 CRISPRi cells [2], the relative_activity_day10 worked out at 0.989.

Consider “HSPA5_ + _128003624.23-P1P2_06 (guide GAGCCGAGTAGACGACGGTG; listed as DNA, chemistry not fully specified)”, for which, in the series on K562 CRISPRi cells [1], the gamma_day5 is given as −0.1192, the gamma_day10 was −0.09835 and the relative_activity_day5 came out at 0.1594. This substance also yielded a relative_activity_day10 with K562 CRISPRi cells [2] of 0.2302.

In the series on K562 CRISPRi cells [1], “HSPA5_ + _128003624.23-P1P2_08 (guide GAGCCGAGTGGGCGACGGTG; listed as DNA, chemistry not fully specified)” yielded a gamma_day5 of −0.7566, a gamma_day10 of −0.4435 and a relative_activity_day5 of 1.012. This substance also had a relative_activity_day10 in the series with K562 CRISPRi cells [2] of 1.038.

“HSPA9_ −_137911079.23-P1P2_00 (guide GGAGCTGCGCGATGCGGTGG; listed as DNA, chemistry not fully specified)”: in the series on K562 CRISPRi cells [1], the gamma_day5 was −0.95, the gamma_day10 was −0.5892 and the relative_activity_day5 is listed as 1. Besides, the relative_activity_day10 with K562 CRISPRi cells [2] came out at 1.

These data come from US20220259593A1, “CONTROL OF MAMMALIAN GENE DOSAGE USING CRISPR” (The Regents of the University of California, priority 2019, published 2022).
